This note sets out measurements from USRE49128E1, “Hydroxyl purine compounds and applications thereof” (GUANGDONG RAYNOVENT BIOTECH CO., LTD., priority 2014, dated 2022).

The target in data set [1] is T1, recombinant full-length PDE2A protein (Homo sapiens, UniProt O00408).
T1 construct: Expression of recombinant full-length PDE2A protein in insect Sf9 cells; GST (N); made in house; host or cells: insect Sf9 cells (baculovirus)
As to the kind of experiment: Evaluation of PDE2 phosphodiesterase inhibitory activity in vitro (fluorescence polarization, Transcreener AMP2/GMP2). The class given is biochemical. To be noted: IC50 classes; substrate 1 μM cGMP; room temperature one hour. As for the experimental part:
Experimental objective: The substituted Alexa Fluor 633 fluorescent dye on the AMP/GMP antibodies was detected by the fluorescence polarization analysis to determine the concentration of AMP/GMP produced in the reaction system, which was used to calculate the IC50 values of the test compounds against PDE2 phosphodiesterase.
The measured buffer solution: 10 mM Tris-HCl, pH 7.5, 5 mM MgCl2, 0.01% Brij 35, 1 mM DTT, and 1% DMSO.
Enzyme: Expression of recombinant full-length PDE2A protein in insect Sf9 cells using N-terminal GST-tag with baculovirus.
Transcreener® AMP^2/GMP^2 antibody, AMP2/GMP2 AlexaFluor 633 fluorescent dye.
The enzyme solution was prepared using freshly prepared buffer solution, and then added to the reaction holes, the DMSO solutions of the test compounds were added by the Echo550 non-contact nanoliter acoustic pipetting system, and then pre-incubated at room temperature for 10 minutes, the reaction was initiated by the addition of the substrate (1 μM cGMP), and then reacted at room temperature for one hour. And then the detection system (Transcreener® AMP^2/GMP^2 antibody, AMP2/GMP2 AlexaFluor 633 fluorescent dye) was added, reacted at room temperature for 90 minutes, the fluorescence polarization was detected using Ex/Em 620/688.
The fluorescence polarization intensity was converted to nM concentration by AMP/GMP standard curve, The relative enzyme activity relative to DMSO blank was calculated, IC50 values and curves were calculated using Prism software packages (GraphPad Software, San Diego Calif., USA).
Background: In fluorescence polarisation assays a small probe gives low polarisation when free and higher when bound to something large.

A further data set deals with TNF-α. As to the kind of experiment: Effect of compounds on TNF-α in LPS-induced blood of rats in vitro (ELISA). The class given is cell-based, Sprague Dawley rats. The following applies: compound 100 μM; LPS-induced rat blood, 5 hours; plasma TNF-α by ELISA; read-out: TNF-α inhibition ratio. As for the experimental part:
Experimental objective: Detect the effects of compounds on TNF-α in LPS-induced blood of rats in vitro, evaluate the inhibitory effect of the compounds on TNF-α in LPS-induced blood of rats.
Sprague Dawley rats (male, 210-260 g, 8-10 weeks old, Shanghai Slack);
Rat TNF-alpha Quantikine ELISA Kit (R&D, #SRTA00).
Test compounds solutions with a concentration of 1 mM were prepared, 40 μL of which (the final concentration of the compound was 100 μM) was respectively added to 48-hole cell culture plates. Rats were anesthetized with isoflurane, heart blood was collected (heparin was used to anticoagulation). The blood was added to the 48-hole plates holding the test compounds, 320 μL per hole. The 48-hole plates were placed in a cell incubator and incubated for 30 minutes, 40 μL LPS solution was added (100 μg/mL), mixed and placed in the incubator and continued to incubate. the 48-hole plates was taken out after 5 hours, the blood samples were transferred to 1.5 mL centrifuge tubes, centrifuged in a centrifuge (4,500 rpm, 4° C., 5 minutes), the upper plasma were separated, frozen after storage and stored in a refrigerator at −80° C. The levels of TNF-α in plasma samples were measured using the R & D ELISA kit according to the kit instructions the nest day.
For orientation: In an ELISA, binding on a coated surface is turned into a signal by an enzyme label.

The nature of data set [2]: Pharmacokinetic evaluation of compounds in SD rats. To be noted: single intravenous injection and oral administration; for bioavailability / clearance / AUC / half-life: male, Sprague-Dawley, rat, plasma; for bioavailability: read-out: Bioavailability F; for clearance: read-out: Clearance rate; for AUC: read-out: Concentration integration AUC; for half-life: read-out: Half-life T1/2 (converted). The class given is in vivo, Sprague Dawley rats. As for the experimental part:
Experimental objective: The pharmacokinetics of test compounds in SD rats.
Sprague Dawley rats (male, 200-300 g, 7-9 weeks old, Shanghai Slack).
The pharmacokinetic characteristics of rodents after intravenous and oral administration of the compounds were tested according to the standard protocol, in the experiment, the candidate compound was formulated into a clear solution, and the rats were given single intravenous injection and oral administration. Intravenous and oral solvents are a certain proportion of hydroxypropyl βcyclodextrin aqueous solution or physiological saline solution. Blood samples within 24 hours were collected, centrifuged (3000 g) for 15 minutes, the supernatant were separated to obtain the plasma samples, the protein was precipitated by adding a 4 times volume of acetonitrile solution that containing the internal standard, centrifuged and the supernatant was then centrifuged after adding equal volume of water, then the supernatant was injected, the plasma concentration was quantitatively analyzed by LC-MS/MS analysis, and pharmacokinetics parameters such as peak concentration, peak time, clearance rate, half-life, drug area under the curve, bioavailability etc. are calculated.

T1 sequence (O00408 whole entry, species assumed): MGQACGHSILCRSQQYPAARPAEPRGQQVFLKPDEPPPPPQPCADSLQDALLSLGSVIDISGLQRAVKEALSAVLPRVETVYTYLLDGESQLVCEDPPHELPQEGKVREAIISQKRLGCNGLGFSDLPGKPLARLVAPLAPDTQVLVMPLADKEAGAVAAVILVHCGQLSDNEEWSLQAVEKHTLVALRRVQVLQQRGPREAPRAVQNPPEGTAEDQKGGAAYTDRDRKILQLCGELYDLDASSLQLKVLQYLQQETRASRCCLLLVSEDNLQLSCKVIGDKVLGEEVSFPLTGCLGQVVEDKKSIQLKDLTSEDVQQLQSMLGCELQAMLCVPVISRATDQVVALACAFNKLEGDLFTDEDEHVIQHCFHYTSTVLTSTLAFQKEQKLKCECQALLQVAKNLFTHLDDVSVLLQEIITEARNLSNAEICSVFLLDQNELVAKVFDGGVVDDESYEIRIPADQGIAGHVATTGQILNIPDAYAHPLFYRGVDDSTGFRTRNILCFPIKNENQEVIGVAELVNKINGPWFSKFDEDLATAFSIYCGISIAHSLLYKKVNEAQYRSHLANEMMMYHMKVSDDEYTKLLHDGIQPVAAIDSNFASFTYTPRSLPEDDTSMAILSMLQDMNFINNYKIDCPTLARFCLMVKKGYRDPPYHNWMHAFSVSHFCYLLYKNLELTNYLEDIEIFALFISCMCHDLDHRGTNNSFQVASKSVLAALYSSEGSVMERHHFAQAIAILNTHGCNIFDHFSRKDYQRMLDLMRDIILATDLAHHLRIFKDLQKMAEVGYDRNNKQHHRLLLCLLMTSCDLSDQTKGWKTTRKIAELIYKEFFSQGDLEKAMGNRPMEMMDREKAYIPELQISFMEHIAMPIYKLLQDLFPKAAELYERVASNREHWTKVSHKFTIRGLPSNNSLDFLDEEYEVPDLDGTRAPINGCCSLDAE

By IC50 is commonly meant the point on the concentration scale where inhibition reaches its midpoint. Turning to `Cn1cnc2c1c(=O)n(CC1CCC(O)(C(F)(F)F)CC1)c(=O)n2C` (single isomer, unassigned) [Embodiment 12 isomer 1], in data set [1], the half-maximal inhibitory concentration (IC50) lay within 10 to 50 µM. For the same compound, the inhibition at 100 µM in the data set with TNF-α fell in the range of 60 to 80%.
`Cn1cnc2c1c(=O)n(CC1CCC(O)(C(F)(F)F)CC1)c(=O)n2C` (single isomer, unassigned) [Embodiment 12 isomer 2]: in data set [2], the bioavailability amounted to 34.1%, the clearance stood at 41 mL/min/kg, the AUC amounted to 3.85 µM·h and the half-life is 1.6 h. Further, the half-inhibitory concentration (IC50) in data set [1] is 1 to 10 µM.
In the same order, the values of `Cn1c(=O)n(CC2CCC(O)(C(F)(F)F)CC2)c(=O)c2c1ncn2CC(F)(F)F` (single isomer, unassigned) [Embodiment 45 isomer 2, 1-((4-Hydroxy-4-(trifluoromethyl)cyclohexyl)methyl)-3-methyl-7-(2,2,2-trifluoroethyl)-1H-purine-2,6(3H,7H)-dione] are 17.1%, 58.4 mL/min/kg, 1.29 µM·h, 6.19 h and 1 to 10 µM.
In the case of `Cn1c(=O)n(CC2CCC(O)(C(F)(F)F)CC2)c(=O)c2c1ncn2CC1CC1` (single isomer, unassigned) [Embodiment 50 isomer 2, 7-(Cyclopropylmethyl)-1-((4-hydroxy-4-(trifluoromethyl)cyclohexyl)methyl)-3-methyl-1H-purine-2,6(3H,7H)-dione], in data set [2], the bioavailability amounted to 42.6%, the clearance was 71.6 mL/min/kg, the AUC came to 2.49 µM·h and the half-life was 0.56 h. Also, the half-inhibitory concentration (IC50) in data set [1] is less than 1 µM. Further, the inhibition at 100 µM with TNF-α is 80 to 100%.
As to `Cn1c(=O)n(CC2CCC(C)(O)CC2)c(=O)c2c1ncn2CC1CC1` (single isomer, unassigned) [Embodiment 51 isomer 2], in data set [2], the bioavailability was 47.9%, the clearance was 54.4 mL/min/kg, the AUC turned out to be 4.39 µM·h and the half-life was 0.793 h. The IC50 in data set [1] lay in the range of 1 to 10 µM. In the data set with TNF-α, the inhibition at 100 µM fell in the range of 80 to 100%.
For `Cn1cnc2c1c(=O)n(CCCCC(C)(O)C(F)(F)F)c(=O)n2C` (stereo not drawn) [Embodiment 1, 3,7-Dimethyl-1-(6,6,6-trifluoro-5-hydroxy-5-methylhexyl)-1H-purine-2,6(3H,7H)-dione], in data set [2], the bioavailability was 59.7%, the clearance is 54.7 mL/min/kg, the AUC came to 1.91 µM·h and the half-life was 0.659 h. In addition, the concentration for half-maximal inhibition (IC50) in data set [1] lay within 10 to 50 µM. Also, in the data set on TNF-α, the inhibition at 100 µM lay in the range of 60 to 80%.
For the compound `CCC(O)(CC)CCCCn1c(=O)c2c(ncn2C)n(C)c1=O` [Embodiment 2, 1-(5-Ethyl-5-hydroxyheptyl)-3,7-dimethyl-1H-purine-2,6(3H,7H)-dione], in data set [2], the bioavailability came out at 34.2%, the clearance came out at 63.6 mL/min/kg, the AUC came to 0.902 µM·h and the half-life is 0.481 h. For the same compound, the IC50 in data set [1] was 1 to 10 µM.
Take `Cn1cnc2c1c(=O)n(CC1CCC(O)(C(F)(F)F)CC1)c(=O)n2C` (stereo not drawn) [Embodiment 11, 1-((4-Hydroxy-4-(trifluoromethyl)cyclohexyl)methyl)-3,7-dimethyl-1H-purine-2,6(3H, 7H)-dione]: in data set [1], the IC50 was 10 to 50 µM. In the data set with TNF-α, the inhibition at 100 µM was in the range of 60 to 80%.
With `Cn1cnc2c1c(=O)n(C[C@H]1CC[C@](O)(C(F)(F)F)CC1)c(=O)n2C` [Embodiment 12, 1-(((1S,4S)-4-Hydroxy-4-(trifluoromethyl)cyclohexyl)methyl)-3,7-dimethyl-1H-purine-2,6(3H,7H)-dione], in data set [2], the “Bioavailability F” value amounted to 41.2%, the Clearance rate came out at 32.7 mL/min/kg, the “Concentration integration AUC” value is 5.863 µM·h and the “Half-life T1/2” value is given as 3.12 h.
Regarding `Cn1cnc2c1c(=O)n(Cc1ccc(C(C)(O)C(F)(F)F)cc1)c(=O)n2C` (stereo not drawn) [Embodiment 27], in data set [2], the bioavailability was determined as 33.8%, the clearance is 13.6 mL/min/kg, the AUC was 11.4 µM·h and the half-life was 2.96 h. In data set [1], the half-maximal inhibitory concentration (IC50) lay within 1 to 10 µM. Besides, the inhibition at 100 µM in the data set on TNF-α fell in the range of 60 to 80%.
As for `Cn1cnc2c1c(=O)n(Cc1ccc(C(C)(O)C(F)(F)F)nc1)c(=O)n2C` (stereo not drawn) [Embodiment 28], in data set [2], the bioavailability worked out at 149%, the clearance came to 12.9 mL/min/kg, the AUC amounted to 51.2 µM·h and the half-life is 2.27 h. The IC50 in data set [1] lay within 1 to 10 µM.
With `C[C@H](O)CNCCn1c(=O)c2c(ncn2C)n(C)c1=O` [Embodiment 40, (S)-1-(2-((2-Hydroxypropyl)amino)ethyl)-3,7-dimethyl-1H-purine-2,6(3H,7H)-dione], in the data set on TNF-α, the inhibition at 100 µM was in the range of 60 to 80%.
With `Cn1c(=O)n(CC2CCC(O)(C(F)(F)F)CC2)c(=O)c2c1ncn2CC(F)(F)F` (stereo not drawn) [Embodiment 44, 1-((4-Hydroxy-4-(trifluoromethyl)cyclohexyl)methyl)-3-methyl-7-(2,2,2-trifluoroethyl)-1H-purine-2,6(3H,7H)-dione], the 50% inhibitory concentration (IC50) in data set [1] lay within 1 to 10 µM. Besides, in the data set with TNF-α, the inhibition at 100 µM lay within 80 to 100%.
On to `Cn1c(=O)n(CC2CCC(O)(C(F)(F)F)CC2)c(=O)c2c1ncn2CC1CC1` (stereo not drawn) [Embodiment 49, 7-(Cyclopropylmethyl)-1-((4-hydroxy-4-(trifluoromethyl)cyclohexyl)methyl)-3-methyl-1H-purine-2,6(3H,7H)-dione], for which the IC50 in data set [1] lay in the range of 1 to 10 µM. In addition, in the data set with TNF-α, the inhibition at 100 µM lay within 80 to 100%.
Turning to `Cn1c(=O)n(Cc2ccc(C(C)(O)C(F)(F)F)nc2)c(=O)c2c1ncn2CC1CC1` (stereo not drawn) [Embodiment 55, 7-(Cyclopropylmethyl)-3-methyl-1-((6-(1,1,1-trifluoro-2-hydroxypropan-2-yl)pyridin-3-yl)methyl)-1H-purine-2,6-(3H,7H)-dione], in data set [2], the bioavailability is 95.8%, the clearance is 21.5 mL/min/kg, the AUC was determined as 17.8 µM·h and the half-life is 2.18 h. The half-maximal inhibitory concentration (IC50) in data set [1] was less than 1 µM. For the same compound, the inhibition at 100 µM in the data set on TNF-α was in the range of 80 to 100%.
